Where a name gives a salt, the structure may show the parent alone. Read-outs that look alike come from different tables or passages of the source.
Experiments:
Type in all cases: biochemical
recombinant PRL-1 = biological target: T1, recombinant PRL-1 (Homo sapiens, UniProt Q93096); assay: In vitro phosphatase assay (DiFMUP hydrolysis), PRL-1; note: test concentration or dose not given here
T1 construct: 6xHis (N, cleaved yes); made in house; host or cells: E. coli One Shot BL21 Star
T1 sequence (Q93096 1-173): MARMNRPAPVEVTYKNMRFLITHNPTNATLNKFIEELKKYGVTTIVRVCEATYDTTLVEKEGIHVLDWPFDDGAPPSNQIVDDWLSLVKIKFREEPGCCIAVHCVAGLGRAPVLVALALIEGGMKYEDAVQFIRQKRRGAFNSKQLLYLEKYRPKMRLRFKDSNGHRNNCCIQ

recombinant PRL-3 = biological target: T2, recombinant PRL-3 (Homo sapiens, UniProt O75365); assay: In vitro phosphatase assay (DiFMUP hydrolysis), PRL-3; note: test concentration or dose not given here
T2 construct: 6xHis (N, cleaved yes); made in house; host or cells: E. coli One Shot BL21 Star

recombinant PRL-2 = biological target: T3, recombinant PRL-2 (Homo sapiens, UniProt Q12974); assay: In vitro phosphatase assay (DiFMUP hydrolysis), PRL-2;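 note: PRL-2 activity read as DiFMUP hydrolysis after 20 min at room temperature with drug, enzyme first pre-reduced at 4 °C for 20 min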
T3 construct: 6xHis (N, cleaved yes); made in house; host or cells: E. coli One Shot BL21 Star
T3 sequence (Q12974 1-167): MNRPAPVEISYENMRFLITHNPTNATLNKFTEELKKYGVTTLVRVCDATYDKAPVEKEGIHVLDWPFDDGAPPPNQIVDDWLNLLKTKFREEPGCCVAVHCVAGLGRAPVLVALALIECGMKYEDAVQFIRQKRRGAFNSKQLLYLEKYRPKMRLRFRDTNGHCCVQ

[1] = FDA-approved drug screen, compared to DMSO

T2 sequence (O75365 whole entry): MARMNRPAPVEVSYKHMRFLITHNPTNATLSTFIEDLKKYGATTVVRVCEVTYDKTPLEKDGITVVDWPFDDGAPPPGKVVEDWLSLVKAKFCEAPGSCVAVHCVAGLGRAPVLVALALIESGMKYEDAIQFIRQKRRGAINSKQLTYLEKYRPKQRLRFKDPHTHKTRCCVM

Row | Compound | % Phosphatase Activity (compared to DMSO) PRL-1 (recombinant PRL-1; [1]) | % Phosphatase Activity (compared to DMSO) PRL-3 (recombinant PRL-3; [1]) | % Phosphatase Activity (compared to DMSO) PRL-2 (recombinant PRL-2; [1]) | % Phosphatase Activity (compared to DMSO) PRL-1 (recombinant PRL-1) | % Phosphatase Activity (compared to DMSO) PRL-3 (recombinant PRL-3) | % Phosphatase Activity (compared to DMSO) PRL-2 (recombinant PRL-2)
1 | Cc1cn[nH]c1 [Fomepizole] | 102% | 78% | 102% | – | – | –
2 | COc1cc2c(Oc3ccc(NC(=O)C4(C(=O)Nc5ccc(F)cc5)CC4)cc3F)ccnc2cc1OCCCN1CCOCC1 [Foretinib (GSK1363089)] | 103% | 97% | 105% | – | – | –
3 | C[C@]12CCC(=O)C(O)=C1CC[C@@H]1[C@@H]2CC[C@]2(C)C(=O)CC[C@@H]12 [Formestane] | – | – | – | 102% | 85% | 123%
4 | COc1ccc(C[C@@H](C)NC[C@H](O)c2ccc(O)c(NC=O)c2)cc1.COc1ccc(C[C@@H](C)NC[C@H](O)c2ccc(O)c(NC=O)c2)cc1.O=C(O)/C=C/C(=O)O [Formoterol Hemifumarate] | 95% | 91% | 106% | – | – | –
5 | CNC[C@H](O)[C@@H](O)[C@H](O)[C@H](O)CO.CNC[C@H](O)[C@@H](O)[C@H](O)[C@H](O)CO.C[C@@H](O[C@H]1OCCN(Cc2nn(P(=O)(O)O)c(=O)[nH]2)[C@H]1c1ccc(F)cc1)c1cc(C(F)(F)F)cc(C(F)(F)F)c1 [Fosaprepitant dimeglumine salt] | 87% | 85% | 94% | – | – | –
6 | O=C(O)P(=O)(O)O [Foscarnet Sodium] | 109% | 91% | 109% | – | – | –
7 | C[C@@H]1O[C@@H]1P(=O)(O)O.NC(CO)(CO)CO [Fosfomycin Tromethamine] | 100% | 92% | 101% | – | – | –
8 | CCC(=O)O[C@@H](O[P@](=O)(CCCCc1ccccc1)CC(=O)N1C[C@H](C2CCCCC2)C[C@H]1C(=O)[O-])C(C)C.[Na+] [Fosinopril Sodium] | 91% | 80% | 69% | – | – | –
9 | COc1cc(Nc2ncc(F)c(Nc3ccc4c(n3)N(COP(=O)(O)O)C(=O)C(C)(C)O4)n2)cc(OC)c1OC [Fostamatinib (R788)] | 92% | 96% | 111% | – | – | –
10 | C[C@]12CC[C@@H]3c4ccc(O)cc4C[C@@H](CCCCCCCCC[S+]([O-])CCCC(F)(F)C(F)(F)F)[C@H]3[C@@H]1CC[C@@H]2O (stereo partly drawn) [Fulvestrant] | 99% | 82% | 91% | – | – | –
11 | Cl.O=C1OC(CN2CCOCC2)CN1/N=C/c1ccc([N+](=O)[O-])o1 (stereo not drawn) [Furaltadone HCl] | 74% | 65% | 80% | – | – | –
12 | NS(=O)(=O)c1cc(C(=O)O)c(NCc2ccco2)cc1Cl [Furosemide] | 97% | 114% | 107% | – | – | –
13 | CC(=O)O[C@H]1C[C@@]2(C)[C@@H](C[C@@H](O)[C@H]3[C@@]4(C)CC[C@@H](O)[C@@H](C)[C@@H]4CC[C@@]32C)/C1=C(\CCC=C(C)C)C(=O)O [Fusidate Sodium] | 87% | 66% | 79% | – | – | –
14 | c1cn2cc(-c3ccc4cn[nH]c4c3)nc(Nc3ccc(N4CCOCC4)cc3)c2n1 [GS-9973] | 294% | 104% | 209% | – | – | –
15 | COc1ncc(-c2ccc3nccc(-c4ccnnc4)c3c2)cc1NS(=O)(=O)c1ccc(F)cc1F [GSK2126458 (GSK458)] | 94% | 88% | 85% | – | – | –
16 | Cl.NCC1(CC(=O)O)CCCCC1 [Gabapentin HCl] | 99% | 85% | 87% | – | – | –
17 | NCC1(CC(=O)O)CCCCC1 [Gabapentin] | 105% | 87% | 92% | – | – | –
18 | CCOC(=O)c1ccc(OC(=O)CCCCCN=C(N)N)cc1.CS(=O)(=O)O [Gabexate Mesylate] | 93% | 80% | 103% | – | – | –
19 | C[C@]12CC[C@H](O)CC1=CC[C@@H]1[C@@H]2CC[C@]2(C)C(n3cnc4ccccc43)=CC[C@@H]12 [Galeterone] | 90% | 96% | 98% | – | – | –
20 | CC[N+](CC)(CC)CCOc1cccc(OCC[N+](CC)(CC)CC)c1OCC[N+](CC)(CC)CC [Gallamine Triethiodide] | 104% | 84% | 105% | – | – | –
21 | O=C(O)c1cc(O)c(O)c(O)c1 [Gallic acid] | 100% | 80% | 76% | – | – | –
22 | Nc1nc(O)c2ncn(COC(CO)CO)c2n1 [Ganciclovir] | 90% | 99% | 98% | – | – | –
23 | CC(C)c1cc(-c2n[nH]c(=O)n2-c2ccc3c(ccn3C)c2)c(O)cc1O [Ganetespib (STA-9090)] | 91% | 89% | 97% | – | – | –
24 | COc1c(N2CCNC(C)C2)c(F)cc2c(=O)c(C(=O)O)cn(C3CC3)c12 (stereo not drawn) [Gatifloxacin] | 146% | 122% | 187% | – | – | –
25 | COc1cc2ncnc(Nc3ccc(F)c(Cl)c3)c2cc1OCCCN1CCOCC1 [Gefitinib (ZD1839)] | 93% | 77% | 102% | – | – | –
26 | Nc1ccn([C@@H]2O[C@H](CO)[C@@H](O)C2(F)F)c(=O)n1 [Gemcitabine HCl] | 93% | 94% | 78% | – | – | –
27 | Nc1ccn([C@@H]2O[C@H](CO)[C@@H](O)C2(F)F)c(=O)n1 [Gemcitabine] | 109% | 77% | 100% | – | – | –
28 | Cc1ccc(C)c(OCCCC(C)(C)C(=O)O)c1 [Gemfibrozil] | 93% | 76% | 95% | – | – | –
29 | O=c1c(-c2ccc(O)cc2)coc2cc(O)cc(O)c12 [Genistein] | 95% | 64% | 100% | – | – | –
